Laboratory results taken from patent US10562908B2, “Ortho substituted phenylpyrazolo- and phenylpyrrolo-pyridazine derivatives having multimodal activity against pain” (priority 2016, dated 2020).
Where two headings read alike, the source gives them in different places.

How the values were obtained:
human μ-opioid receptor = target: T1, human μ-opioid receptor (Homo sapiens, UniProt P35372); assay: Human μ-opioid receptor radioligand assay ([3H]-DAMGO); format: binding
T1 construct: expressed in transfected cells; host or cells: CHO-K1
Method in brief: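 Transfected CHO-K1 membranes (20 μg) incubated with 1 nM [3H]-DAMGO in 50 mM Tris-HCl, 5 mM MgCl2, pH 7.4, 60 min at 27 °C; non-specific binding with 10 μM naloxone. Test compound at five concentrations; bound radioactivity counted after filtration by scintillation.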

[1] = target: Human α2δ-1 subunit of Cav2.2 calcium channel (Homo sapiens, UniProt P54289); assay: Human α2δ-1 subunit of Cav2.2 calcium channel assay ([3H]-Gabapentin); format: binding
Method in brief: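 α2δ-1-enriched membranes (2.5 μg) were incubated with 15 nM [3H]-gabapentin in 10 mM Hepes-KOH pH 7.4 for 60 min at 27 °C. Non-specific binding was defined with 10 μM pregabalin. Compounds were tested at five concentrations, with filtration and scintillation counting.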

[2] = transfected CHO-K1 cell membranes, 1 nM [3H]-DAMGO, read-out: Binding μ (Ki)
[3] = human α2δ-1 enriched membranes, 15 nM [3H]-Gabapentin, read-out: Binding α2δ-1 (Ki)

T1 sequence (P35372 whole entry): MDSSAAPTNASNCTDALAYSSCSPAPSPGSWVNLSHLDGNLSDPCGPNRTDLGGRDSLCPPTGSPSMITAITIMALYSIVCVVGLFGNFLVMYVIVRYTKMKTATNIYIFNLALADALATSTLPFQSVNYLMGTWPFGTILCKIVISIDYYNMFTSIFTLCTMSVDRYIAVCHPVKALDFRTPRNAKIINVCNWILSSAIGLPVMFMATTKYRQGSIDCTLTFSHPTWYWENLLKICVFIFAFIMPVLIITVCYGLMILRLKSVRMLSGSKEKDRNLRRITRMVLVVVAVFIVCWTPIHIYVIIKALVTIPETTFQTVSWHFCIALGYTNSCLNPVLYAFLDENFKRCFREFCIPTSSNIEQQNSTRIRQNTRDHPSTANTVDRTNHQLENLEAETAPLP
Human α2δ-1 subunit of Cav2.2 calcium channel, sequence (P54289 25-1103): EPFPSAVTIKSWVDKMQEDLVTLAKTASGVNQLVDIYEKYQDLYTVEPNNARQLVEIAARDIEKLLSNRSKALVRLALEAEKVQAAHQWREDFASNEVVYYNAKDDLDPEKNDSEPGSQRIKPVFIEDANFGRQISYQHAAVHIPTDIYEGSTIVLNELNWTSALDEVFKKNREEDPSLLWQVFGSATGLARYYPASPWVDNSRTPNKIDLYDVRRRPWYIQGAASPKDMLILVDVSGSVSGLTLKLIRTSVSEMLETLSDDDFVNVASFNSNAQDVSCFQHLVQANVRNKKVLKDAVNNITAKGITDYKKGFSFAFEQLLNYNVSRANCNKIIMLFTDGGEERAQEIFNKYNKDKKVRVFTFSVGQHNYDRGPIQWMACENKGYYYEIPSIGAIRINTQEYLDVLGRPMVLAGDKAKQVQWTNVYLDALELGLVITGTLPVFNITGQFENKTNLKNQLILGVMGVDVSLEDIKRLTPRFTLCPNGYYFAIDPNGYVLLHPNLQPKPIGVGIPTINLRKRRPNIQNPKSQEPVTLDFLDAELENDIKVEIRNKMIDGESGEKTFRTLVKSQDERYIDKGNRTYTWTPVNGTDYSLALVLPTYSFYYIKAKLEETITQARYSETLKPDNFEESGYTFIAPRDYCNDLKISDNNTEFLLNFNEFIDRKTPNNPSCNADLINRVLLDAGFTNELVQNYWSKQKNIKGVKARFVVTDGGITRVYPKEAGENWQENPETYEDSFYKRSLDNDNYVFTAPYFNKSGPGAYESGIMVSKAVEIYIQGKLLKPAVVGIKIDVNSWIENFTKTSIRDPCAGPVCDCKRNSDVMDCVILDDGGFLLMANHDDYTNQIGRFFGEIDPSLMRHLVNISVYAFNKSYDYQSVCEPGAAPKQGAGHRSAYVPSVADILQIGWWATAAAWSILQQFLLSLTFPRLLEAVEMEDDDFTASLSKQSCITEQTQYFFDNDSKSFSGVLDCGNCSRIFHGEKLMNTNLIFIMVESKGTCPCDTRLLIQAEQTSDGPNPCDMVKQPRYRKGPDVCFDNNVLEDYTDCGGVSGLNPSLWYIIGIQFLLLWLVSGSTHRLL

`CNCCC(Oc1ccccc1-n1nc2c(Cc3noc(C)n3)nnc(C)c2c1C)c1ccccc1` (stereo not drawn) [Example 64, 3-(2-(3,4-Dimethyl-7-((5-methyl-1,2,4-oxadiazol-3-yl)methyl)-2H-pyrazolo[3,4-d]pyridazin-2-yl)phenoxy)-N-methyl-3-phenylpropan-1-amine] was tested, and the Ki (human μ-opioid receptor; [2]) was > 500 nM and the Ki [1, 3] was > 5000 nM.

With `CNCCC(Oc1ccccc1-n1c(C)c2c(C)nnc(C)c2c1C)c1ccccc1` (stereo not drawn) [Example 65, N-Methyl-3-phenyl-3-(2-(1,4,5,7-tetramethyl-6H-pyrrolo[3,4-d]pyridazin-6-yl)phenoxy)propan-1-amine] the Ki (human μ-opioid receptor) was 100 to 500 nM and the Ki [1] was 500 to 5000 nM.

For `CNCCC(Oc1ccccc1-n1nc2cnnc(C)c2c1C)c1ccccc1` (stereo not drawn) [Example 66, 3-(2-(3,4-Dimethyl-2H-pyrazolo[3,4-d]pyridazin-2-yl)phenoxy)-N-methyl-3-phenylpropan-1-amine], the Ki (human μ-opioid receptor; [2]) was > 500 nM and the Ki [1, 3] was > 5000 nM.

In the case of `CNCC(Oc1ccccc1-n1nc2c(N(C)C)nnc(C)c2c1C)c1ccccc1` (stereo not drawn) [Example 67, N,N,3,4-Tetramethyl-2-(2-(2-(methylamino)-1-phenylethoxy)phenyl)-2H-pyrazolo[3,4-d]pyridazin-7-amine], the Ki (human μ-opioid receptor; [2]) is reported as > 500 nM and the Ki [1, 3] is reported as 500 to 5000 nM.

With `CNCCC(Oc1ccccc1-n1nc2c(NC)nnc(C)c2c1C)c1ccccc1` (stereo not drawn) [Example 68, N,3,4-Trimethyl-2-(2-(3-(methylamino)-1-phenylpropoxy)phenyl)-2H-pyrazolo[3,4-d]pyridazin-7-amine] the Ki (human μ-opioid receptor; [2]) was > 500 nM and the Ki [1, 3] was 500 to 5000 nM.

For `CNCCC(Oc1ccccc1-n1nc2c(C)nnc(C)c2c1C)c1ccccc1` (stereo not drawn) [Example 69, N-methyl-3-phenyl-3-(2-(3,4,7-trimethyl-2H-pyrazolo[3,4-d]pyridazin-2-yl)phenoxy)propan-1-amine], the Ki (human μ-opioid receptor; [2]) was > 500 nM and the Ki [1, 3] was > 5000 nM.

With `CNCCC(Oc1ccccc1-n1nc2c(C(C)C)nnc(C)c2c1C)c1ccccc1` (stereo not drawn) [Example 70, 3-(2-(7-isopropyl-3,4-dimethyl-2H-pyrazolo[3,4-d]pyridazin-2-yl)phenoxy)-N-methyl-3-phenylpropan-1-amine] the Ki (human μ-opioid receptor; [2]) was > 500 nM and the Ki [1, 3] was > 5000 nM.

With `CNCCC(Oc1ccccc1-n1cc2cnnc(N(C)C)c2n1)c1ccccc1` (stereo not drawn) [Example 71, N,N-dimethyl-2-(2-(3-(methylamino)-1-phenylpropoxy)phenyl)-2H-pyrazolo[3,4-d]pyridazin-7-amine] the Ki (human μ-opioid receptor; [2]) was > 500 nM and the Ki [1, 3] was 500 to 5000 nM.

With `CNCc1ccccc1COc1ccccc1-n1nc2c(N(C)C)nnc(C)c2c1C` [Example 72, N,N,3,4-Tetramethyl-2-(2-((2-((methylamino)methyl)benzyl)oxy)phenyl)-2H-pyrazolo[3,4-d]pyridazin-7-amine] the Ki (human μ-opioid receptor; [2]) was > 500 nM and the Ki [1, 3] was 500 to 5000 nM.

For `Cc1nnc(N(C)C)c2nn(-c3ccccc3OC(CCNCCF)c3ccccc3)c(C)c12` (stereo not drawn) [Example 73, 2-(2-(3-((2-Fluoroethyl)amino)-1-phenylpropoxy)phenyl)-N,N,3,4-tetramethyl-2H-pyrazolo[3,4-d]pyridazin-7-amine], the Ki (human μ-opioid receptor) was < 100 nM and the Ki [1] was 500 to 5000 nM.

`Cc1nnc(N(C)C)c2nn(-c3ccccc3OC(Cc3ccccc3)CN(C)Cc3ccccc3)c(C)c12` (stereo not drawn) [Example 74, 2-(2-((1-(Benzyl(methyl)amino)-3-phenylpropan-2-yl)oxy)phenyl)-N,N,3,4-tetramethyl-2H-pyrazolo[3,4-d]pyridazin-7-amine] was tested, and the Ki (human μ-opioid receptor; [2]) was > 500 nM and the Ki [1, 3] was > 5000 nM.

In the case of `Cc1nnc(N(C)C)c2nn(-c3ccccc3OC(CCN(C)Cc3ccccc3)Cc3ccccc3)c(C)c12` (stereo not drawn) [Example 75, 2-(2-((4-(benzyl(methyl)amino)-1-phenylbutan-2-yl)oxy)phenyl)-N,N,3,4-tetramethyl-2H-pyrazolo[3,4-d]pyridazin-7-amine], the Ki (human μ-opioid receptor; [2]) is reported as > 500 nM and the Ki [1, 3] is reported as > 5000 nM.

For `CNCC(Cc1ccccc1)Oc1ccccc1-n1nc2c(N(C)C)nnc(C)c2c1C` (stereo not drawn) [Example 76, N,N,3,4-Tetramethyl-2-(2-((1-(methylamino)-3-phenylpropan-2-yl)oxy)phenyl)-2H-pyrazolo[3,4-d]pyridazin-7-amine], the Ki (human μ-opioid receptor; [2]) was > 500 nM and the Ki [1, 3] was 500 to 5000 nM.

`CNCCC(Cc1ccccc1)Oc1ccccc1-n1nc2c(N(C)C)nnc(C)c2c1C` (stereo not drawn) [Example 77, N,N,3,4-tetramethyl-2-(2-((4-(methylamino)-1-phenylbutan-2-yl)oxy)phenyl)-2H-pyrazolo[3,4-d]pyridazin-7-amine] was tested, and the Ki (human μ-opioid receptor; [2]) was > 500 nM and the Ki [1, 3] was 500 to 5000 nM.

With `CNCCC(Oc1ccccc1-n1nc2c(N(C)C)nnc(C)c2c1C)c1cccs1` (stereo not drawn) [Example 78, N,N,3,4-Tetramethyl-2-(2-(3-(methylamino)-1-(thiophen-2-yl)propoxy)phenyl)-2H-pyrazolo[3,4-d]pyridazin-7-amine] the Ki (human μ-opioid receptor) was 100 to 500 nM and the Ki [1] was 500 to 5000 nM.

`CNCCC(Oc1ccccc1-n1nc2c(N(C)C)nnc(C)c2c1C)c1cccc(O)c1` (stereo not drawn) [Example 79, 3-(1-(2-(7-(Dimethylamino)-3,4-dimethyl-2H-pyrazolo[3,4-d]pyridazin-2-yl)phenoxy)-3-(methylamino)propyl)phenol] showed a Ki (human μ-opioid receptor) of 100 to 500 nM and a Ki [1] of 500 to 5000 nM.

With `CNCCC(Oc1cc(N2CCCC2=O)ccc1-n1nc2c(N(C)C)nnc(C)c2c1C)c1ccccc1` (stereo not drawn) [Example 80, 1-(4-(7-(Dimethylamino)-3,4-dimethyl-2H-pyrazolo[3,4-d]pyridazin-2-yl)-3-(3-(methylamino)-1-phenylpropoxy)phenyl)pyrrolidin-2-one] the Ki (human μ-opioid receptor; [2]) was > 500 nM and the Ki [1, 3] was 500 to 5000 nM.

For `CNCCC(Oc1ccc(N2CCCC2=O)cc1-n1nc2c(N(C)C)nnc(C)c2c1C)c1ccccc1` (stereo not drawn) [Example 81, 1-(3-(7-(dimethylamino)-3,4-dimethyl-2H-pyrazolo[3,4-d]pyridazin-2-yl)-4-(3-(methylamino)-1-phenylpropoxy)phenyl)pyrrolidin-2-one], the Ki (human μ-opioid receptor; [2]) was > 500 nM and the Ki [1, 3] was > 5000 nM.

`CNCCC(Oc1cc(NC(C)=O)ccc1-n1nc2c(N(C)C)nnc(C)c2c1C)c1ccccc1` (stereo not drawn) [Example 82, N-(4-(7-(dimethylamino)-3,4-dimethyl-2H-pyrazolo[3,4-d]pyridazin-2-yl)-3-(3-(methylamino)-1-phenylpropoxy)phenyl)acetamide] was tested, and the Ki (human μ-opioid receptor; [2]) was > 500 nM and the Ki [1, 3] was 500 to 5000 nM.

In the case of `CNCCC(Oc1ccc(NC(C)=O)cc1-n1nc2c(N(C)C)nnc(C)c2c1C)c1ccccc1` (stereo not drawn) [Example 83, N-(3-(7-(dimethylamino)-3,4-dimethyl-2H-pyrazolo[3,4-d]pyridazin-2-yl)-4-(3-(methylamino)-1-phenylpropoxy)phenyl)acetamide], the Ki (human μ-opioid receptor; [2]) is reported as > 500 nM and the Ki [1, 3] is reported as 500 to 5000 nM.

In the case of `CNCCC(Oc1ccccc1-n1nc2c(N(C)C)nnc(C)c2c1C)c1cccc(NC(C)=O)c1` (stereo not drawn) [Example 84, N-(3-(1-(2-(7-(dimethylamino)-3,4-dimethyl-2H-pyrazolo[3,4-d]pyridazin-2-yl)phenoxy)-3-(methylamino)propyl)phenyl)acetamide], the Ki (human μ-opioid receptor; [2]) is reported as > 500 nM and the Ki [1, 3] is reported as 500 to 5000 nM.

In the case of `CNCCC(Oc1cc(C#N)ccc1-n1nc2c(N(C)C)nnc(C)c2c1C)c1ccccc1` (stereo not drawn) [Example 85, 4-(7-(Dimethylamino)-3,4-dimethyl-2H-pyrazolo[3,4-d]pyridazin-2-yl)-3-(3-(methylamino)-1-phenylpropoxy)benzonitrile], the Ki (human μ-opioid receptor; [2]) is reported as > 500 nM and the Ki [1, 3] is reported as > 5000 nM.

In the case of `CNCCC(Oc1ccc(C#N)cc1-n1nc2c(N(C)C)nnc(C)c2c1C)c1ccccc1` (stereo not drawn) [Example 86, 3-(7-(dimethylamino)-3,4-dimethyl-2H-pyrazolo[3,4-d]pyridazin-2-yl)-4-(3-(methylamino)-1-phenylpropoxy)benzonitrile], the Ki (human μ-opioid receptor; [2]) is reported as > 500 nM and the Ki [1, 3] is reported as > 5000 nM.

`CCOc1ccc(-n2nc3c(N(C)C)nnc(C)c3c2C)c(OC(CCNC)c2ccccc2)c1` (stereo not drawn) [Example 87, 2-(4-Ethoxy-2-(3-(methylamino)-1-phenylpropoxy)phenyl)-N,N,3,4-tetramethyl-2H-pyrazolo[3,4-d]pyridazin-7-amine] was tested, and the Ki (human μ-opioid receptor) was > 500 nM and the Ki [1] was < 500 nM.

For `CNCCC(Oc1ccc(OC)cc1-n1nc2c(N(C)C)nnc(C)c2c1C)c1ccccc1` (stereo not drawn) [Example 88, 2-(5-methoxy-2-(3-(methylamino)-1-phenylpropoxy)phenyl)-N,N,3,4-tetramethyl-2H-pyrazolo[3,4-d]pyridazin-7-amine], the Ki (human μ-opioid receptor; [2]) was > 500 nM and the Ki [1, 3] was 500 to 5000 nM.

For `CCOc1ccc(OC(CCNC)c2ccccc2)c(-n2nc3c(N(C)C)nnc(C)c3c2C)c1` (stereo not drawn) [Example 89, 2-(5-ethoxy-2-(3-(methylamino)-1-phenylpropoxy)phenyl)-N,N,3,4-tetramethyl-2H-pyrazolo[3,4-d]pyridazin-7-amine], the Ki (human μ-opioid receptor; [2]) was > 500 nM and the Ki [1, 3] was 500 to 5000 nM.

`CCOc1cccc(C(CCNC)Oc2ccccc2-n2nc3c(N(C)C)nnc(C)c3c2C)c1` (stereo not drawn) [Example 90, 2-(2-(1-(3-ethoxyphenyl)-3-(methylamino)propoxy)phenyl)-N,N,3,4-tetramethyl-2H-pyrazolo[3,4-d]pyridazin-7-amine] was tested, and the Ki (human μ-opioid receptor; [2]) was > 500 nM and the Ki [1, 3] was 500 to 5000 nM.

With `CNCCC(Oc1ccccc1-n1nc2c(N(C)C)nnc(C)c2c1C)c1cccc(C(N)=O)c1` (stereo not drawn) [Example 91, 3-(1-(2-(7-(Dimethylamino)-3,4-dimethyl-2H-pyrazolo[3,4-d]pyridazin-2-yl)phenoxy)-3-(methylamino)propyl)benzamide] the Ki (human μ-opioid receptor; [2]) was > 500 nM and the Ki [1, 3] was 500 to 5000 nM.

For `CNCCC(Oc1ccccc1-n1nc2c(N(C)C)nnc(C)c2c1C)c1ccc(C(N)=O)cc1` (stereo not drawn) [Example 92, 4-(1-(2-(7-(dimethylamino)-3,4-dimethyl-2H-pyrazolo[3,4-d]pyridazin-2-yl)phenoxy)-3-(methylamino)propyl)benzamide], the Ki (human μ-opioid receptor; [2]) was > 500 nM and the Ki [1, 3] was 500 to 5000 nM.

For `CNCCC(Oc1ccc(C(N)=O)cc1-n1nc2c(N(C)C)nnc(C)c2c1C)c1ccccc1` (stereo not drawn) [Example 93, 3-(7-(dimethylamino)-3,4-dimethyl-2H-pyrazolo[3,4-d]pyridazin-2-yl)-4-(3-(methylamino)-1-phenylpropoxy)benzamide], the Ki (human μ-opioid receptor; [2]) was > 500 nM and the Ki [1, 3] was > 5000 nM.
